# Results reported in patent US4143133A, “Claudogenic-interceptive nonapeptides” (American Home Products Corporation, priority 1977, dated 1979).
# Assays:
# [1] = test system: Proestrous female Sprague-Dawley rats; assay: Ovulation induction in Nembutal-treated proestrous rats; assay type: in vivo, rat; details: for Dose giving ovulation inducing activity in 100 percent of the rats: via the jugular vein, Nembutal 50 mg/kg i.p.
# Procedure: The ovulation-induction properties of the nonapeptides of this invention was determined as follows:
# Proestrous female Sprague-Dawley rats were injected intraperitoneally with a hypnotic dose of Nembutal® (50 mg/kg) at 1:30 P.M. Between 1:40 and 1:50 P.M. the rats received the test material via the jugular vein. The following morning the animals were sacraficed and the fallopian tubes examined for ova under a dissecting microscope. […] Thus, in its ovulation induction, the preferred compound of this invention, [D-2-(cyclohexyl)Gly^6, Pro-NHC2 H5^9 ]LHRH is about 10 times as active as [D-Ala^6, Pro-NHC2 H5^9 ]LH-RH and 30 times as active as LH-RH.
# [2] = test system: Proestrous female Sprague-Dawley rats; assay: as above; assay type: in vivo; details: P.O.; rat
# [3] = test system: Mature, female, Sprague-Dawley rats; assay: Anti-gravidity (claudogenic/interceptive) test in mated rats; assay type: in vivo; details: rat; for Claudogen (D 1-7), Minimal Effective Dose (100% effect): days 1-7 of pregnancy; for Interceptive (D 7-12), Minimal Effective Dose (100% effect): days 7-12 of pregnancy
# [4] = cited from earlier work
# [5] = test system: LH secretion; details: cited from earlier work
compound,measurement,setting,value
"CCNC(=O)[C@@H]1CCCN1C(=O)[C@H](CCCNC(=N)N)NC(=O)[C@H](CC(C)C)NC(=O)[C@H](NC(=O)[C@H](Cc1ccc(O)cc1)NC(=O)[C@H](CO)NC(=O)[C@H](Cc1c[nH]c2ccccc12)NC(=O)[C@H](Cc1c[nH]cn1)NC(=O)[C@@H]1CCC(=O)N1)C1CCCCC1 [Example 5, L-pyroglutamyl-L-histidyl-L-tryptophyl-L-seryl-L-tyrosyl-D-2-(cyclohexyl)glycyl-L-leucyl-L-arginyl-L-prolinethylamide]","Ovulation induction, Minimal Effective Dose (100% effect)","[1]; I.V., rat",0.10 μ/rat
same,Ovulation induction activity relative to LH-RH,[1]; rat,~30 times
same,"Ovulation induction activity relative to [D-Ala^6, Pro-NHC2 H5^9 ]LH-RH",[1]; rat,about 10 times
same,Dose giving ovulation inducing activity in 100 percent of the rats,[1],0.1 μg per rat
same,"Ovulation induction, Minimal Effective Dose (100% effect)",[2],~ 10 μ/rat
same,"Claudogen (D 1-7), Minimal Effective Dose (100% effect)",[3]; P.O.,200 μ/rat
same,"Interceptive (D 7-12), Minimal Effective Dose (100% effect)",[3]; P.O.,> 1000 μ/rat
same,"Claudogen (D 1-7), Minimal Effective Dose (100% effect)",[3]; S.C.,~ 1.0 μ/rat
same,"Interceptive (D 7-12), Minimal Effective Dose (100% effect)",[3]; S.C.,~ 10 μ/rat
CCNC(=O)[C@@H]1CCCN1C(=O)[C@H](CCCNC(=N)N)NC(=O)[C@H](CC(C)C)N(C)C(=O)[C@H](NC(=O)[C@H](Cc1ccc(O)cc1)NC(=O)[C@H](CO)NC(=O)[C@H](Cc1c[nH]c2ccccc12)NC(=O)[C@H](Cc1c[nH]cn1)NC(=O)[C@@H]1CCC(=O)N1)C1CCCCC1 [Example 6],"Ovulation induction, Minimal Effective Dose (100% effect)","[1]; i.v., rat",1.0 μg/rat
same,Dose giving ovulation inducing activity in 100 percent of the rats,[1],1.0 μg per rat
same,"Ovulation induction, Minimal Effective Dose (100% effect)",[2],> 10 μg/rat
same,"Claudogen (D 1-7), Minimal Effective Dose (100% effect)",[3]; P.O.,> 1000 μg/rat
same,"Interceptive (D 7-12), Minimal Effective Dose (100% effect)",[3]; P.O.,> 1000 μg/rat
same,"Claudogen (D 1-7), Minimal Effective Dose (100% effect)",[3]; S.C.,10 μg/rat
same,"Interceptive (D 7-12), Minimal Effective Dose (100% effect)",[3]; S.C.,~ 10 μg/rat
D-Ala^6 -LRH,Potency relative to LH-RH,[4]; Monahan et al. 1973,more potent than LH-RH
"D-Ala^6, (N^α -Me)Leu^7 LH-RH","Potency in stimulating the secretion of LH, percent of LH-RH's potency",[5]; Ling et al. 1975,560%
"LH-RH (QHWSYGLRPG; Gonadoliberin-1; UniProt P01148 24-33, looked up) [native hormone used as comparison in ovulation induction, reference compound]",Dose giving ovulation inducing activity in 100 percent of the rats,[1],about 3 μg per rat
"[D-Ala^6, des-Gly-NH2^10, Proethylamide]LH-RH [reference compound]",Dose giving ovulation inducing activity in 100 percent of the rats,[1],about 1 μg per rat
same,Potency in stimulating LH secretion relative to D-Ala^6 -LH-RH,[5]; Coy et al. 1974,about twice
des-Gly^10 -Pro-NHC2 H5 -LH-RH,Activity relative to LH-RH,[4]; Fujino et al. 1972,three to five times as active as LH-RH
